Results reported in US6635434B1, “Immunoassay for pesticides and their degradation products” (Exiqon A/S, priority 1999, dated 2003).
Where “and” joins values, the source holds several entries; their conditions need not be identical. Equal entries are not always repeated. Entries after “also recorded” stand apart in the source; their conditions may differ.

What was measured:
[1] = tested on: antibody (HYB 273-1); assay: Competitive ELISA for BAM on plates covalently (photocoupled) coated with BAM-OA-AQ; type: binding, mice; conditions: for cross-reactivity (IC50 of BAM divided by IC50 of analyte, times 100): analytes assayed up to 100 mg/L, antibody HYB 273-1
Procedure: A PolySorp™ microtitre plate was filled by a stationary dispensor with 200 μL/well BAM-OA-AQ (50 ng/mL) in 0.1×PBS. After being exposed to uv-light (300-400 nm) at 34° C. for 30 min, the plate was washed 4 times with de-ionised water and dried 30 min at 37° C. The plate was either used immediately or sealed with tape lid and stored at room temperature in the dark until use.
(§1) Standards (in Milli-Q® water) and samples (150 μL) were added to the hapten-coated plate followed by the addition of 50 μL antibody (HYB 273-1) diluted in 10×PBST (66.7 ng/mL). The plate was incubated for 1 hour. After washing 4 times with PBST, the plate was incubated with 200 μL/well RαM^HRP diluted 1:1000 in PBST. After a final 6 times wash with PBST, 200 μL/well TMB-Plus was added. The colour development was stopped after 10 minutes by adding 50 μL/well 1 M H2SO4 and the absorbance was read at 450 nm.
(§2) The standards were used to generate a semi-log graph based on the 4-parameter-logistic method (Rodbard, 1974: equation 1), followed by calculation of sample values. [formula]
(§3) To compare the performances of the two ELISA methods with antigen coated by passive adsorption to that by covalent immobilisation respectively, standard curves were generated with BAM standards ranging from 0.0156 to 2 μg/L on each surface using the identical assay procedures. The data were normalised by the % B/B0 transformation (eq 2). The normalised data were then plotted vs. BAM concentration and the four-parameter-logistic equation (eq 1) was fitted to the experimental points (FIG. 3).
As to detection limits (defined as the analyte concentration giving a 15% decrease in maximum signal: DL15) and sensitivity (defined as the analyte concentration giving a 50% decrease in maximum signal: IC50) the two surface performs almost equally. […] Further development of the BAM assay was therefore based on this technology and the following results are generated on PolySorp™ microtire plates covalently coated with BAM-OA-AQ as described herein in the Preparation of plates section

[2] = Immunisation of mice with hapten-polymer carrier complex, raising of monoclonal antibodies; type: in vivo; conditions: hapten coupled to polymer carrier (ovalbumin)
Procedure: Live mice were primed for immunisation by an intraperitoneal injection of live BCG-vaccine one month before immunisation. The antigen (hapten-OA complex), once adsorbed onto Al(OH)3, was injected intraperitonally and test bleeding were collected. When antibody titre's exceeded 1:2000, mice were considered ready for fusion and the method described by Köhler and Milstein (1975) was employed with minor modifications. Monoclonal antibodies were selected on basis of titre, affinity and specificity. Selected clones were recloned until monoclonality and stored frozen at −80° C.
Ten to twelve weeks old female Balb/cxCF1 F1-hybrid mice were used for immunisation. One month before immunisation they were primed with 0.2 mL live BCG-vaccine intraperitonally. The antigen (25×carrier/immunogen) was absorbed onto Al(OH)3 as an adjuvant. The total volume of vaccine per immunisation was 200 μL, containing 25× of antigen and […] of adjuvant. The antigen was injected intraperitonally with 2-weeks intervals. Test bleedings were collected 10 days after immunisation and assayed in ELISA.
When antibody titre's exceeded 1:2000, mice were regarded ready for fusion. The procedure as described by Köhler and Milstein (1975) was employed with minor modifications. Monoclonal antibodies were selected on basis of titre, affinity and specificity. […]

[3] = tested on: antibody (HYB 273-1); assay: Competitive ELISA for BAM on plates coated with BAM-OA by passive adsorption; type: binding, mice; conditions: FIG. 3B
Procedure: i) Passive adsorption: A MaxiSorp™ microtitre plate was filled by a stationary dispensor with 200 μL/well BAM-OA (16.7 ng/mL) in coating buffer. After coating over night at 4° C. the plate was washed 4 times with de-ionised water and dried 30 min at 37° C. The plate was either used immediately or sealed with tape lid and stored at room temperature in the dark until use.
as §1, §2
as §3, with “The normalised data were then plotted vs. BAM concentration and the four-parameter-logistic equation (eq 1) was fitted to the experimental points (FIG. 3).” left out

Row | Molecule | cross-reactivity (IC50 of BAM divided by IC50 of analyte, times 100) [1] | immunoresponse on immunisation with the hapten [2] | further results
1 | N#Cc1c(Cl)cccc1Cl [dichlorbenil, dichlorobenzonitrile] | no measurable cross-reactivity |  | 
2 | N-(5-carboxypentyl)-2,4-dichloro-3-amido aniline [EQ-0031] |  | good responses were generated; also recorded: generated good immunoresponse | 
3 | NC(=O)c1c(Cl)cccc1Cl [BAM, 2,6-dichlorobenzamide] |  |  | IC50 (analyte concentration giving a 50% decrease in maximum signal) ([1]; covalently immobilised plates (PolySorp, photocoupled), FIG. 3A): 0.189 ng/mL and 0.19 ng/mL; DL15 (detection limit, analyte concentration giving a 15% decrease in maximum signal) ([1]; photo catalysed covalent immobilisation, FIG. 3A): 0.02 µg/L; DL15 (detection limit, analyte concentration giving a 15% decrease in maximum signal) ([3]; passive adsorption): 0.045 µg/L; IC50 (analyte concentration giving a 50% decrease in maximum signal) ([3]; passively adsorbed plates (MaxiSorp)): 0.144 ng/mL and 0.14 ng/mL
4 | O=C(CCCCCNC(=O)c1c(Cl)cccc1Cl)ON1C(=O)CCC1=O [EQ-0025, succinimidyl-N-(2,6-dichlorobenzoyl)-6-amino-hexanoate] |  | able to induce strong immunoresponse | 
5 | NC(=O)c1ccc(Cl)cc1Cl [2,4-dichlorobenzamide] | 3.8% |  | 
